Measured values as given in article PMC7522027 (Disease Models & Mechanisms, 2020).
“And” between values parts separate entries of the source, which are not always exact repeats. Equal entries are not always repeated.

Experiments:
[1] = system: zebrafish embryos; experiment: zebrafish embryo assay (morphological developmental defects at 48 hpf); format: in vivo, zebrafish (Danio rerio); details: for developmental defects in zebrafish embryos: broad concentration range; for effect on zebrafish embryo development: 20 µM (maximum tested concentration)
Description: Zebrafish eggs obtained from family crosses of Tuebingen long fin zebrafish lines were used to assess the biological activity of all samples. The eggs were washed with fresh E3 medium and subsequently divided over 24-well plates, with ten embryos per well in 1000 µl E3 medium. Samples were added to the wells at various times as mentioned in the figures and legends. At 48 hpf, the zebrafish embryos were inspected for morphological developmental defects. Embryos displaying morphological defects were imaged using a Leica MZFLIII microscope equipped with a Leica DFC320 camera or Leica M165 FC microscope equipped with a Leica DMC5400 camera.

[2] = system: zebrafish embryos; experiment: in situ hybridization with krox20/myod probes in treated zebrafish embryos; format: in vivo, zebrafish (Danio rerio); details: 750 nM from 6 hpf, fixed at 12 hpf
Description: Embryos were treated from approximately 6 hpf until 12 hpf when they were fixed in 4% paraformaldehyde overnight. In situ hybridization was performed using krox20 and myod anti-sense RNA probes as described elsewhere ([Thisse and Thisse, 2008]).

[3] = system: BMP2-induced SMAD1/5-dependent BRE-luc transcriptional reporter; experiment: BMP2-induced BRE-luc transcriptional reporter assay in HepG2 cells; format: cell-based, human; details: HepG2, BMP2 50 ng/ml; cercosporamide 100 nM to 10 µM, LDN-193189 200 nM
Description: For luciferase transcriptional reporter assays, HepG2 cells were seeded in 9-cm plates at ∼60% confluency and transfected with polyethyleneimine (PEI). Twenty-four hours later, the transfected cells were seeded in 24-well plates at ∼60% confluency. Another 24 h later, the cells were serum starved for 6 h. Subsequently the cells were treated with compound or DMSO for 30 min. Thereafter, the cells were stimulated with BMP2 in the presence of compounds (or DMSO) for 16 h (overnight). Subsequently, the cells were washed with PBS and lysed. Luciferase activity was measured using the luciferase reporter assay system from Promega (Leiden, The Netherlands) by a Perkin Elmer luminometer Victor^3 1420. Each DNA transfection mixture was equalized with empty vector when necessary and every experiment was performed in triplicate. β-galactosidase expression construct was co-transfected and β-galactosidase was measured to normalize for differences in transfection efficiency. The BRE-luc reporter construct has been reported previously ([Korchynskyi and ten Dijke, 2002]).

[4] = molecular target: T1, caALK1 (Homo sapiens, UniProt P37023, Q201D); experiment: caALK1-induced SMAD1/5 phosphorylation in HEK 293T cells; format: cell-based; details: cercosporamide 1-10 µM, LDN193189 200 nM
T1 construct: expressed in transfected cells; host or cells: HEK 293T
Excerpt: (§1) HepG2 or HEK 293T cells were lysed in Laemmli sample buffer. Proteins were separated by sodium dodecyl sulfate polyacrylamide gel electrophoresis (SDS-PAGE) and transferred onto […] polyvinylidene difluoride (PVDF) membrane (IPVH00010, Merck Millipore). Membranes were blocked using 5% non-fat dry milk in Tris-buffered saline with 0.1% Tween 20 (655204, Merck Millipore) and probed with the respective primary and secondary antibodies. The signal was detected using Clarity™ Western ECL Substrate (1705060, Bio-Rad) and ChemiDoc Imaging System (17001402, Bio-Rad). The antibodies used for immunoblotting were raised against the following proteins: phospho-SMAD1/5/8 ([Persson et al., 1998]; 1:1000), SMAD1 (Cell Signaling Technology, #6944; 1:1000), GAPDH (Merck Millipore, #G8795; 1:5000) and hemagglutinin (HA; Roche, #12CA5; 1:1000).
(§2) For experiments with the caALK type I receptor constructs, HEK 293T cells were seeded in 24-well plates at ∼90% confluency and transfected with the DNA expression constructs in the presence of PEI. Thirty hours after transfection, the cells were added to serum-starved medium and treated with compounds for 16 h (overnight). Subsequently, the cells were washed with PBS and lysed in Laemmli sample buffer. […]

[5] = molecular target: T2, caALK2 (Homo sapiens, UniProt Q04771, Q207D); experiment: caALK2-induced SMAD1/5 phosphorylation in HEK 293T cells; format: cell-based; details: cercosporamide 1-10 µM, LDN193189 200 nM
T2 construct: expressed in transfected cells; host or cells: HEK 293T
T2 sequence (Q04771 21-509 Q207D): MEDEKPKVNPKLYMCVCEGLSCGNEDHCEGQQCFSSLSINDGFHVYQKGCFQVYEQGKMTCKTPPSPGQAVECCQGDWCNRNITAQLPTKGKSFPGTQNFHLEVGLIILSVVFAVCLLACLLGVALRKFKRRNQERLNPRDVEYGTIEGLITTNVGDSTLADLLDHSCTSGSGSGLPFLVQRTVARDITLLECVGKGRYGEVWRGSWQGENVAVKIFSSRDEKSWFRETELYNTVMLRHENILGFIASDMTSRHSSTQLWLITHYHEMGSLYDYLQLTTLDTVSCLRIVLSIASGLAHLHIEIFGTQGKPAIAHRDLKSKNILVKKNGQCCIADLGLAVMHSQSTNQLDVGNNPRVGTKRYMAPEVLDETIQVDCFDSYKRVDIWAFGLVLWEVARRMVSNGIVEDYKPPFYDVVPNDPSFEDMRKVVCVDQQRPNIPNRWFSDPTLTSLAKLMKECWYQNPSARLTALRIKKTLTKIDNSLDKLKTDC
Excerpt: as §1, §2

[6] = molecular target: T3, caALK3 (Homo sapiens, UniProt P36894, Q233D); experiment: caALK3-induced SMAD1/5 phosphorylation in HEK 293T cells; format: cell-based; details: cercosporamide 1-10 µM, LDN193189 200 nM
T3 construct: expressed in transfected cells; host or cells: HEK 293T
Excerpt: as §1, §2

[7] = system: caALK6; experiment: caALK6-induced SMAD1/5 phosphorylation in HEK 293T cells; format: cell-based, human; details: cercosporamide 1-10 µM, LDN193189 200 nM
Excerpt: as §1, §2

[8] = system: BMP2-induced SMAD1/5 phosphorylation; experiment: BMP2-induced SMAD1/5 phosphorylation in HepG2 cells (immunoblot); format: cell-based, human; details: HepG2, BMP2 50 ng/ml, maximum tested concentration of 20 µM
Description: For BMP stimulation, the HepG2 cells (∼50% confluency) were starved on serum-free medium for 6 h. Subsequently, prior to the addition of BMP ligands, the cells were treated with compound for 30 min. Next, the cells were stimulated with BMP2 (50 ng/ml) or BMP6 (50 ng/ml) for 45 min. The cells were then washed with PBS and lysed in Laemmli sample buffer for western blot analysis.
as §1

T3 sequence (P36894 24-532 Q233D): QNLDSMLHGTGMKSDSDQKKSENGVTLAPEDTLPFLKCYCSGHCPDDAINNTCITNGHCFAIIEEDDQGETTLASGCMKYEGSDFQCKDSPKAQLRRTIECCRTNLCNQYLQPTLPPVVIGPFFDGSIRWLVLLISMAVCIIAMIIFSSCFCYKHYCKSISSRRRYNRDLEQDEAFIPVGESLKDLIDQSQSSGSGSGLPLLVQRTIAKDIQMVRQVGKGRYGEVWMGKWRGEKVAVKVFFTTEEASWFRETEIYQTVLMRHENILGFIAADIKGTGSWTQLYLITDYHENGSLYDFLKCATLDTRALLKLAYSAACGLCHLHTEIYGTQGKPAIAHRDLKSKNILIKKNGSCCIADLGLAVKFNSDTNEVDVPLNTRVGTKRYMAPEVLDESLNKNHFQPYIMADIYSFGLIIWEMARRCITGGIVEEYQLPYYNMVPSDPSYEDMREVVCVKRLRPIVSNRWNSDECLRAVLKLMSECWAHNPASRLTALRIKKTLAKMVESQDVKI
T1 sequence (P37023 22-503 Q201D): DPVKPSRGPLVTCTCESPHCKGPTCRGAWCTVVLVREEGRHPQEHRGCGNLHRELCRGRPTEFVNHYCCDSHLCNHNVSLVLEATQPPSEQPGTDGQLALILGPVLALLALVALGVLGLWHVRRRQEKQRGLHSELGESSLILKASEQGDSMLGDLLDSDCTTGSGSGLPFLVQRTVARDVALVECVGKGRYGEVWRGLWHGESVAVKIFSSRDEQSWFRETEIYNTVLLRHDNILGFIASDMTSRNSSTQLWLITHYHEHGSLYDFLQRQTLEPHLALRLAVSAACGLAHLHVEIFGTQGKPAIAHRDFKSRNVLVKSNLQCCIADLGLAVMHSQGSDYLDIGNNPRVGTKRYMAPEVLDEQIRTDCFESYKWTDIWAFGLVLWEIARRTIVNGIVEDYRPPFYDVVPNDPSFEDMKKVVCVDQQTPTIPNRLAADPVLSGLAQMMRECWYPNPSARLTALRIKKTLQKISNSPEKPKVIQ

Cc1cccc(-c2nn(C(=S)Nc3ccccc3)cc2-c2ccnc3ccccc23)n1 [A83-01]
developmental defects in zebrafish embryos [1]: severely curved tail and fused eyes

Cc1cccc(-c2[nH]ncc2-c2ccc3ncccc3n2)n1 [ALK5 kinase inhibitor II]
developmental defects in zebrafish embryos [1]: severely curved tail and fused eyes

CC(C)Oc1ccc(-c2cnc3c(-c4ccnc5ccccc45)cnn3c2)cc1 [DMH-1]
lethality ([1]; 250 nM, treatment from 2 hpf onwards): lethal
embryos in which treatment is lethal ([1]; 250 nM, treatment from 4 hpf): 50%
phenotype ([1]; 750 nM): loss of the ventral fin
phenotype at 48 hpf ([1]; DMH-1 treatment at 8 hpf (250 nM, Fig. S3)): mild defects
krox20 expression pattern [2]: induced lateral expression of krox20
fraction of embryos showing the pattern ([2]; one fraction per depicted pattern): 9/13 and 4/13

c1ccc2c(-c3cnn4cc(-c5ccc(N6CCNCC6)cc5)cnc34)ccnc2c1 [LDN-193189, reference compound]
developmental defects, single treatment ([1]; 5 µM, from 7 hpf onwards): did not induce detectable developmental defects
effect on BMP2-induced BRE-luc activity [3]: potent antagonizing effect
effect on caALK1-induced SMAD1/5 phosphorylation [4]: strongly reduced
effect on caALK2-induced SMAD1/5 phosphorylation [5]: strongly reduced
effect on caALK3-induced SMAD1/5 phosphorylation [6]: strongly reduced
effect on caALK6-induced SMAD1/5 phosphorylation [7]: strongly reduced

Cc1cc(Nc2cc(N)ncn2)c(=O)n2c1C(=O)NC21CCCCC1 [eFT508]
effect on zebrafish embryo development [1]: no effect
effect on zebrafish embryo development ([1]; listed as eFT 508): did not induce developmental
effect on SMAD1/5 phosphorylation [8]: no effect
effect on SMAD1/5 phosphorylation ([8]; listed as eFT 508): did not affect
